One series relates to mouse ES cells. In words: RT-PCR detection of differential gene expression in ES cell units after split-split culture. In kind it is cell-based. Particulars: DMEM, 1 μM, FIG. 11. As to the method:
Pluripotent mouse ES cell units were cultured for five days in ES cell medium (see example 3), the ES medium was decanted and the cell units washed twice with PBS to remove traces of ES medium. The bead population was split into three groups, and the PBS decanted and replaced with one of (i) ES cell medium; (ii) Dulbecco's modified Eagle's medium (DMEM) with 10% fetal calf serum; or (iii) Chemically Defined Medium (CDM; Wiles M V, Johansson B M, 1999, Exp. Cell Res., vol 247, p. 241-8). After one hour culture under standard conditions, each of the three groups were split into three further groups, each of which was incubated in one of: (i) the medium in which the cell groups were cultured; the medium in which the cell groups were cultured including 1 μM LiCl; or (iii) the medium in which the cell groups were cultured including 1 μm retinoic acid (RA). Every other day half the medium was replaced with the respective fresh medium.
Cell units of mouse ES cells induced to differentiate by split-split culture (see example 4) were washed with PBS, and RNA prepared from the cell units using Rneasy reagents according to manufacturer's instructions (Qiagen). RNA samples were then used to prepare first strand cDNA with oligo-dT priming using reverse transcriptase according to the manufacturer's instructions (Invitrogen). […]

The test system of series [1] is cytochrome P450 (CyP450) metabolic enzymes. The series is described as follows: CyP450 ethoxyresorufin assay on HepG2 cell units. In kind it is cell-based, human. As to the method: A split-pool culture experiment was performed in order to assay tissue culture conditions that might affect a particular cellular process, namely the expression and/or activity of cytochrome P450 (CyP450) metabolic enzymes. Members of this class of enzyme, such as 1A1 and 1A2, can be assayed with the use of a substrate, ethoxyresorufin, that is enzymatically hydrolyzed to produce a product, resorufin, that has distinct fluorescence characteristics that can be used to measure CyP450 enzyme activity. The expression of CyP450 enzymes can be regulated by inducer molecules, such as β-naphthoflavone, and inhibitors such as α-naphthoflavone, quinidine, or aminotriazole. It is also possible for some molecules to induce expression of a CyP450 gene(s), but inhibit activity of the enzyme product of that gene. Therefore, complicated patterns of expression and activity can arise according to the pattern of serial exposure of cells to regulatory compounds. […]
For the CyP450 assay, aliquots of beads in growth medium were removed and the enzyme substrate ethoxyresorufin was added to a final concentration of 10 μM. The samples of beads were placed on a microscope slide with a cover slip, and observed immediately with an epifluorescent microscope using a standard filter set for Texas Red/rhodamine fluorescence (see FIG. 9). […]

Molecules are shown by their SMILES.

As to `[Cl-].[Li+]` [LiCl], the “decrease in Oct4” value with mouse ES cells is listed as “inhibited the reduction”.
Regarding `O=c1cc(-c2ccccc2)oc2ccc3ccccc3c12` [β-naphthoflavone], in series [1] (HepG2 cell units following a split pool experiment, FIG. 9 Panels E/F), the “P450 level / conversion of ethoxyresorufin to fluorescent product” value is “high levels of P450”. In addition, the “time until enzyme activity (resorufin fluorescence) is evident after addition of ethoxyresorufin” value in series [1] (HepG2 cell units on CYTODEX 3 treated in a control experiment, 10 μM ethoxyresorufin, control cells about 15-20 minutes) was 5 to 10 min.

The record behind these values is US9574174B2, “Cell culture” (PLASTICELL LIMITED, priority 2002, dated 2017).
